According to patent publication US10406169B2, “Methods of monitoring estriol therapy” (The Regents of the University of California, priority 2015, dated 2019):

Experiment: Safety and adverse events
Assay type: in vivo, human
Source text: On study blood tests included complete blood count (CBC) with differential and platelets; chemistry panel including sodium, potassium, creatinine, BUN, glucose, total protein, albumin, bilirubin (total), alkaline phosphatase, AST (SGOT), and ALT (SGPT), and lipid profile (HDL, LDL and triglycerides, cholesterol. […] Adverse event analysis was based on the percentage of patients who discontinued the study and the percentage of patients who discontinued the study possibly due to adverse events.

## glatiramer acetate [Placebo + GA]
Breast
  Fibrocystic disease on clinical exam - %: (5) %
  Fibrocystic disease on clinical exam - no.: 4
  Mammogram with malignancy - no.: 0
Completed
  Breast adverse events, # of patients: [5]
  Breast adverse events, number of events: 5
  Cardiovascular adverse events, # of patients: [8]
  Cardiovascular adverse events, number of events: 8
  Extremity adverse events, # of patients: [21]
  Extremity adverse events, number of events: 43
  GA related? adverse events, # of patients: [11]
  GA related? adverse events, number of events: 22
  GI adverse events, # of patients: [15]
  GI adverse events, number of events: 19
  GU adverse events, # of patients: [10]
  GU adverse events, number of events: 17
  GYN adverse events, # of patients: [15]
  GYN adverse events, number of events: 18
  General adverse events, # of patients: [26]
  General adverse events, number of events: 48
  Head/Neck adverse events, # of patients: [26]
  Head/Neck adverse events, number of events: 42
  Lymph adverse events, # of patients: [1]
  Lymph adverse events, number of events: 1
  MRI related adverse events, # of patients: [2]
  MRI related adverse events, number of events: 3
  Menses adverse events, # of patients: [10]
  Menses adverse events, number of events: 14
  Mental adverse events, # of patients: [10]
  Mental adverse events, number of events: 14
  Neurology adverse events, # of patients: [9]
  Neurology adverse events, number of events: 13
  Respiratory adverse events, # of patients: [26]
  Respiratory adverse events, number of events: 47
  Skeleton adverse events, # of patients: [1]
  Skeleton adverse events, number of events: 2
  Skin adverse events, # of patients: [10]
  Skin adverse events, number of events: 15
  Total adverse events, # of patients: [53]
  Total adverse events, number of events: 331
Discontinued
  Cancer adverse events, # of patients: [1]
  Cancer adverse events, number of events: 1
  Extremity adverse events, # of patients: [2]
  Extremity adverse events, number of events: 4
  GA related? adverse events, # of patients: [4]
  GA related? adverse events, number of events: 10
  GI adverse events, # of patients: [3]
  GI adverse events, number of events: 3
  GU adverse events, # of patients: [3]
  GU adverse events, number of events: 3
  GYN adverse events, # of patients: [3]
  GYN adverse events, number of events: 3
  General adverse events, # of patients: [6]
  General adverse events, number of events: 9
  Head/Neck adverse events, # of patients: [4]
  Head/Neck adverse events, number of events: 9
  Lymph adverse events, # of patients: [1]
  Lymph adverse events, number of events: 1
  Menses adverse events, # of patients: [2]
  Menses adverse events, number of events: 3
  Mental adverse events, # of patients: [5]
  Mental adverse events, number of events: 5
  Neurology adverse events, # of patients: [1]
  Neurology adverse events, number of events: 1
  Respiratory adverse events, # of patients: [3]
  Respiratory adverse events, number of events: 7
  Skin adverse events, # of patients: [2]
  Skin adverse events, number of events: 2
  Total adverse events, # of patients: [13]
  Total adverse events, number of events: 61
Uterus
  Abnormal proliferation on biopsy - no.: 0
  Endometrial biopsies performed - %: (8) %
  Endometrial biopsies performed - no.: 6
  Endometrial thickness >8 mm (ultrasound) - %: (36) %
  Endometrial thickness >8 mm (ultrasound) - no.: 27
  Fibroids (ultrasound) - %: (11) %
  Fibroids (ultrasound) - no.: 8
In vivo
  Adverse events leading to discontinuation - %: (6%)
  Adverse events leading to discontinuation - no.: 5
  Any adverse event - % of pts: 87%
  Any adverse event - no of pts: 67
  Any adverse event - no. of events: 392
  Arm/leg numbness, tingling - % of pts: 9%
  Arm/leg numbness, tingling - no of pts: 7
  Arm/leg numbness, tingling - no. of events: 10
  Back pain - % of pts: 6%
  Back pain - no of pts: 5
  Back pain - no. of events: 5
  Copaxone injection area abnormalities - % of pts: 18%
  Copaxone injection area abnormalities - no of pts: 14
  Copaxone injection area abnormalities - no. of events: 30
  Depression/anxiety - % of pts: 12%
  Depression/anxiety - no of pts: 9
  Depression/anxiety - no. of events: 10
  Dizziness - % of pts: 9%
  Dizziness - no of pts: 7
  Dizziness - no. of events: 10
  Fatigue - % of pts: 10%
  Fatigue - no of pts: 8
  Fatigue - no. of events: 10
  Gastroenteritis - % of pts: 4%
  Gastroenteritis - no of pts: 3
  Gastroenteritis - no. of events: 4
  Headache - % of pts: 14%
  Headache - no of pts: 11
  Headache - no. of events: 12
  Heart palpitation - % of pts: 5%
  Heart palpitation - no of pts: 4
  Heart palpitation - no. of events: 4
  Insomnia - % of pts: 5%
  Insomnia - no of pts: 4
  Insomnia - no. of events: 4
  Irregular menses/spotting - % of pts: 4%
  Irregular menses/spotting - no of pts: 3
  Irregular menses/spotting - no. of events: 4
  Menstrual cramp - % of pts: 5%
  Menstrual cramp - no of pts: 4
  Menstrual cramp - no. of events: 5
  Menstrual flow amount increased - % of pts: 8%
  Menstrual flow amount increased - no of pts: 6
  Menstrual flow amount increased - no. of events: 8
  Nausea/vomiting - % of pts: 6%
  Nausea/vomiting - no of pts: 5
  Nausea/vomiting - no. of events: 5
  Severe adverse events - % of pts: 13%
  Severe adverse events - no of pts: 10
  Severe adverse events - no. of events: 12
  Shingles - % of pts: 5%
  Shingles - no of pts: 4
  Shingles - no. of events: 4
  Sinusitis - % of pts: 13%
  Sinusitis - no of pts: 10
  Sinusitis - no. of events: 14
  Upper respiratory infection - % of pts: 34%
  Upper respiratory infection - no of pts: 26
  Upper respiratory infection - no. of events: 38
  Urinary tract infection - % of pts: 13%
  Urinary tract infection - no of pts: 10
  Urinary tract infection - no. of events: 16
  Vaginal infection - % of pts: 10%
  Vaginal infection - no of pts: 8
  Vaginal infection - no. of events: 9
  Vision problem (blurry, double) - % of pts: 9%
  Vision problem (blurry, double) - no of pts: 7
  Vision problem (blurry, double) - no. of events: 7
Severe adverse event
  Accidently took other's drug - % of pts: [1, 1%]
  Accidently took other's drug - no of pts: [1, 1%]
  Accidently took other's drug - no. of events: 1
  Acute appendicitis - % of pts: [1, 1%]
  Acute appendicitis - no of pts: [1, 1%]
  Acute appendicitis - no. of events: 1
  B-cell lymphoma - % of pts: [1, 1%]
  B-cell lymphoma - no of pts: [1, 1%]
  B-cell lymphoma - no. of events: 1
  Car accident related body numbness - % of pts: [1, 1%]
  Car accident related body numbness - no of pts: [1, 1%]
  Car accident related body numbness - no. of events: 1
  Heart failure - no. of events: 0
  MS relapse - % of pts: 6%
  MS relapse - no of pts: 5
  MS relapse - no. of events: 6
  Migraine headache related eye pain - no. of events: 0
  Pace maker implantation - no. of events: 0
  Pregnancy termination - no. of events: 0
  Pyelonephritis - no. of events: 0
  Right knee replacement - % of pts: [1, 1%]
  Right knee replacement - no of pts: [1, 1%]
  Right knee replacement - no. of events: 1
  Systolic heart failure - no. of events: 0
  UTI - % of pts: [1, 1%]
  UTI - no of pts: [1, 1%]
  UTI - no. of events: 1
